Assay results as given in ChEMBL document CHEMBL4020764, “Phytochemical and cytotoxic studies on the leaves of Calotropis gigantea” (Bioorg Med Chem Lett, 2017).
One block for each molecule: values may come before it. Calls of active or inactive are those of the source. No cut-off for these calls is given here.

Tests used:
PANC-1 [1] = experiment: Cytotoxicity against human PANC1 cells after 72 hrs by WST8 assay; type: functional, cell-based; details: PANC-1, 72 h
PANC-1 [2] = experiment: Growth inhibition of human PANC1 cells after 72 hrs by WST8 assay; type: functional; details: PANC-1, 72 h
PANC-1 [3] = experiment: Cytotoxicity against human PANC1 cells at >25 uM measured after 72 hrs by WST8 assay; type: functional, cell-based
PANC-1 [4] = experiment: Induction of morphological changes in human PANC1 cells assessed as cell rounding at 5 to 10 uM after 72 hrs by ethidium bromide/acridine orange staining based fluorescent microscopic analysis; type: functional
PANC-1 [5] = experiment: Induction of morphological changes in human PANC1 cells assessed as disruption of cellular organelles at 5 to 10 uM after 72 hrs by ethidium bromide/acridine orange staining based fluorescent microscopic analysis; type: functional, cell-based
PANC-1 [6] = experiment: Induction of morphological changes in human PANC1 cells assessed as increase in EB positive cells at 5 to 10 uM after 72 hrs by ethidium bromide/acridine orange staining based fluorescent microscopic analysis; type: functional, cell-based
PANC-1 [7] = experiment: Inhibition of colony formation in human PANC1 cells after 10 days by crystal violet staining based assay; type: functional, cell-based

SMILES: O=C(/C=C/c1ccc(O)cc1)c1ccc(O)cc1O [ISOLIQUIRITIGENIN]
IC50 (PANC-1 [1]): 3.3 µM

SMILES: COc1cc(C(=O)OC[C@H]2O[C@@H](Oc3ccc([C@H]4OC[C@H]5[C@@H]4CO[C@@H]5c4ccc(O)c(OC)c4)cc3OC)[C@H](O)[C@@H](O)[C@@H]2O)ccc1O
IC50 (PANC-1 [1]): 63.4 µM

SMILES: O=Cc1ccc(CO)o1 [AES-103]
IC50 (PANC-1 [1]): > 100 µM

SMILES: CO[C@H]1C[C@@H](OCc2ccc(C=O)o2)O[C@@H]1[C@@H](C)O
IC50 (PANC-1 [1]): > 100 µM

SMILES: CO[C@@H]1C[C@@H](OCc2ccc(C=O)o2)O[C@@H](C)[C@@H]1O
IC50 (PANC-1 [1]): > 100 µM

SMILES: Cc1ncccc1O
IC50 (PANC-1 [1]): > 100 µM

SMILES: COc1cc([C@H]2OC[C@H]3[C@@H]2CO[C@@H]3c2ccc(O)c(OC)c2)ccc1O
IC50 (PANC-1 [1]): 37.5 µM

SMILES: CC(=O)[C@H]1CC[C@H]2[C@@H]3C=CC4=CC(=O)CC[C@]4(C)[C@H]3CC[C@]12C
IC50 (PANC-1 [1]): 40 µM

GI50 (PANC-1 [2]): 5.8 µM
SMILES: Nc1ccn([C@@H]2O[C@H](CO)[C@@H](O)C2(F)F)c(=O)n1 [GEMCITABINE]
Activity (PANC-1 [3]): Active

SMILES: CC(=O)[C@]1(O)CC[C@]2(O)[C@@H]3CC=C4C[C@@H](O)CC[C@]4(C)[C@H]3C[C@@H](OC(=O)c3ccccc3)[C@]12C
IC50 (PANC-1 [1]): 18.7 µM

SMILES: COc1cc([C@H]2O[C@@H](OC)[C@H]3[C@@H]2CO[C@@H]3c2ccc(O)c(OC)c2)ccc1O
IC50 (PANC-1 [1]): 3.7 µM | Activity (PANC-1 [4]): Active | Activity (PANC-1 [5]): Active | Activity (PANC-1 [6]): Active | inhibition (PANC-1 [7]): Dose-dependent effect

SMILES: CC(=O)[C@H]1CC[C@@]2(O)[C@@H]3C=CC4=CC(=O)CC[C@]4(C)[C@H]3CC[C@]12C
IC50 (PANC-1 [1]): 79.3 µM

SMILES: COc1cc([C@H]2OC[C@H]3[C@@H]2CO[C@@H]3c2cc(OC)c(O)c(OC)c2)cc(OC)c1O [SYRINGARESINOL]
IC50 (PANC-1 [1]): 61.1 µM
